Structures are written as SMILES. A value given as a limit tells only on which side of the number the result lay.

Common to all, as to format: biochemical
Holding throughout (conditions): Enzymatic Data

For one experiment, the target named is T1, PI3K alfa (Homo sapiens, UniProt P42336).
T1 construct: p85(iSH2) fusion partner (same polypeptide; see partner chain) (N); 12x Gly linker (N); His tag (C); made in house; host or cells: baculovirus; Tn5 (Trichoplusia ni) or TiniPro insect cells
The experiment can be described thus: PI3K alfa enzymatic assay (Kinase-Glo luminescence). The procedure:
(§1) In a more preferred assay, the kinase reaction is performed in a final volume of 10 μL per well of a low volume non binding CORNING, 384 well black plate (Cat. No. #3676). The final concentrations of ATP and phosphatidyl inositol (PI) in the assay are 1 μM and 10 μg/mL respectively. The reaction is started by the addition of ATP.
(§2) The components of the assay are added per well as follows:
(§3) 50 nL test compounds in 90% DMSO per well, in columns 1-20, 8 concentrations (⅓ and 1/3.33 serial dilution step) in single. • Low control: 50 nL of 90% DMSO in half the wells of columns 23-24 (0.45% in final). • High control: 50 nL of reference compound (e.g. compound of Example 7 in WO 2006/122806, incorporated by reference herein that regard) in the other half of columns 23-24 (2.5 μM in final). • Standard: 50 nL of reference compound as just mentioned diluted as the test compounds in columns 21-22 • 20 mL ‘buffer’ are prepared per assay: • 200 μL of 1M TRIS HCl pH7.5 (10 mM in final) • 60 μL of 1M MgCl2 (3 mM in final) • 500 μL of 2M NaCl (50 mM in final) • 100 μL of 10% CHAPS (0.05% in final) • 200 μL of 100 mM DTT (1 mM in final) • 18.94 mL of nanopure water • 10 mL ‘PI’ are prepared per assay: • 200 μL of 1 mg/ml L-alpha-Phosphatidylinositol (Liver Bovine, Avanti Polar Lipids Cat. No. 840042C MW=909.12) prepared in 3% OctylGlucoside ([…]) • 9.8 mL of ‘buffer’ • 10 mL ‘ATP’ are prepared per assay: • 6.7 μL of 3 mM stock of ATP giving a final concentration of 1 μM per well • 10 mL of ‘buffer’ • 2.5 mL of each PI3K construct are prepared per assay in ‘PI’ with the following final concentration: • 10 nM PI3K alfa BV-1075 • 25 nM beta BV-949 • 10 nM delta BV-1060 • 150 nM gamma BV-950 • 5 μL of ‘PI/PI3K’ are added per well. • 5 μl ‘ATP’ are added per well to start the reaction. • The plates are then incubated at room temperature for 60 minutes (alfa, beta, delta) or 120 minutes (gamma). • The reaction is terminated by the addition of 10 μL Kinase-Glo (Promega Cat. No. #6714). • The assay plates are read after 10 minutes in Synergy 2 reader (BioTek, Vermont USA) with an integration time of 100 milliseconds and sensitivity set to 191. • Output: The High control is around 60′000 counts and the Low control is 30′000 or lower • This luminescence assay gives a useful Z′ ratio between 0.4 and 0.7 The Z′ value is a universal measurement of the robustness of an assay. A Z′ between 0.5 and 1.0 is considered an excellent assay.
(§4) IC50 is determined by a four parameter curve fitting routine that comes aloneg with “excel fit”. A 4 Parameter logistic equation is used to calculate IC50 values (IDBS XLfit) of the percentage inhibition of each compound at 8 concentrations (usually 10, 3.0, 1.0, 0.3, 0.1, 0.030, 0.010 and 0.003 μM). Alternatively, IC50 values are calculated using idbsXLfit model 204, which is a 4 parameter logistic model.
A general note: Kinase-Glo reads ATP consumption through a luciferase reaction.

Another experiment addresses T2, PI3K beta (Homo sapiens, UniProt P42338).
T2 construct: for the full-length p110-b subunit are generated and fused by overlapping PCR; p85(iSH2) fusion partner (same polypeptide; see partner chain) (N); Gly linker (N); His tag (C); made in house; host or cells: baculovirus; Tn5 (Trichoplusia ni) or TiniPro insect cells
Briefly: PI3K beta enzymatic assay (Kinase-Glo luminescence). The procedure:
as §1, §2, §3
PI3Kβ BV-949 p85(iSH2)-Gly linker-p110b (Full-Length)-C-Term His Tag
as §4

The target in the next experiment is T3, PI3K delta (Homo sapiens, UniProt O00329).
T3 construct: for the full-length p110-d subunit are generated and fused by overlapping PCR; p85(iSH2) fusion partner (same polypeptide; see partner chain) (N); Gly linker (N); His tag (C); made in house; host or cells: baculovirus; Tn5 (Trichoplusia ni) or TiniPro insect cells
The experiment can be described thus: PI3K delta enzymatic assay (Kinase-Glo luminescence). How it is done:
as §1, §2, §3
PI3Kδ BV-1060 p85(iSH2)-Gly Linker-p110d (Full-Length)-C-term His Tact
as §4

The target in a further experiment is T4, PI3K gamma (Homo sapiens, UniProt P48736).
T4 construct: His tag (C); made in house; host or cells: construct from Roger Williams lab (MRC LMB); baculovirus (pVL1393); Tn5 (Trichoplusia ni) or TiniPro insect cells
Briefly: PI3K gamma enzymatic assay (Kinase-Glo luminescence). How it is done:
as §1, §2, §3, §4

T2 sequence (P42338 with tags, fused parts or gaps limits assumed): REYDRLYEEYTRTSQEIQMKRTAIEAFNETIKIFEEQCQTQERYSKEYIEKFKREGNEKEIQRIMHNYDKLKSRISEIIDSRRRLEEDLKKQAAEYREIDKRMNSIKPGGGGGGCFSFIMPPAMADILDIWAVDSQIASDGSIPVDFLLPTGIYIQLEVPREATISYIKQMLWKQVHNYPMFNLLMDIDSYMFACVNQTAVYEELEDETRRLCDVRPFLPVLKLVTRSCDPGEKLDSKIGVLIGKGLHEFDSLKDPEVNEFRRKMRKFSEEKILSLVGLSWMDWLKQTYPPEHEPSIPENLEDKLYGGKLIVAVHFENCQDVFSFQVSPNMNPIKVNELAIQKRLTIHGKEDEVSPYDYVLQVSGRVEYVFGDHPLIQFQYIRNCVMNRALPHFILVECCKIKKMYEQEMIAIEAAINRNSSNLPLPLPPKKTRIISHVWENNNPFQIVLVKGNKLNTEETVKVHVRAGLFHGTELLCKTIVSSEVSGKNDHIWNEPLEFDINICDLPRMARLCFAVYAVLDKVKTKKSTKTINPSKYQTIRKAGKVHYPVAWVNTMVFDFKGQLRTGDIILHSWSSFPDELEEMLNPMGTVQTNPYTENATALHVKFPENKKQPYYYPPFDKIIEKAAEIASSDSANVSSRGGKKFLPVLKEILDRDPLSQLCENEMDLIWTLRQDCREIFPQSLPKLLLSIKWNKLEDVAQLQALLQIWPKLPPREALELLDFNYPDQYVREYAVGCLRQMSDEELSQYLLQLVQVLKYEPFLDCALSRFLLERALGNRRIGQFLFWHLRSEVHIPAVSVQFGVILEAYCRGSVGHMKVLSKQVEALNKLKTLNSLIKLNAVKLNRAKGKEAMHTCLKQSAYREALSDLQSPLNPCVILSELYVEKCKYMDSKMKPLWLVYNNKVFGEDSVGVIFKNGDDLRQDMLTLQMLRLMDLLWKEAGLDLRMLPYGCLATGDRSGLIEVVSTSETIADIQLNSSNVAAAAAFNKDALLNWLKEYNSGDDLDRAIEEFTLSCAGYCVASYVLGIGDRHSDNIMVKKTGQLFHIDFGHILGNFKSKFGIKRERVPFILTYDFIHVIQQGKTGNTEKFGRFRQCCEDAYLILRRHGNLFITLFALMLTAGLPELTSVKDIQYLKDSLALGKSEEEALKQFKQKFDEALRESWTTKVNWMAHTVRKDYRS
T1 sequence (P42336 with tags, fused parts or gaps limits assumed): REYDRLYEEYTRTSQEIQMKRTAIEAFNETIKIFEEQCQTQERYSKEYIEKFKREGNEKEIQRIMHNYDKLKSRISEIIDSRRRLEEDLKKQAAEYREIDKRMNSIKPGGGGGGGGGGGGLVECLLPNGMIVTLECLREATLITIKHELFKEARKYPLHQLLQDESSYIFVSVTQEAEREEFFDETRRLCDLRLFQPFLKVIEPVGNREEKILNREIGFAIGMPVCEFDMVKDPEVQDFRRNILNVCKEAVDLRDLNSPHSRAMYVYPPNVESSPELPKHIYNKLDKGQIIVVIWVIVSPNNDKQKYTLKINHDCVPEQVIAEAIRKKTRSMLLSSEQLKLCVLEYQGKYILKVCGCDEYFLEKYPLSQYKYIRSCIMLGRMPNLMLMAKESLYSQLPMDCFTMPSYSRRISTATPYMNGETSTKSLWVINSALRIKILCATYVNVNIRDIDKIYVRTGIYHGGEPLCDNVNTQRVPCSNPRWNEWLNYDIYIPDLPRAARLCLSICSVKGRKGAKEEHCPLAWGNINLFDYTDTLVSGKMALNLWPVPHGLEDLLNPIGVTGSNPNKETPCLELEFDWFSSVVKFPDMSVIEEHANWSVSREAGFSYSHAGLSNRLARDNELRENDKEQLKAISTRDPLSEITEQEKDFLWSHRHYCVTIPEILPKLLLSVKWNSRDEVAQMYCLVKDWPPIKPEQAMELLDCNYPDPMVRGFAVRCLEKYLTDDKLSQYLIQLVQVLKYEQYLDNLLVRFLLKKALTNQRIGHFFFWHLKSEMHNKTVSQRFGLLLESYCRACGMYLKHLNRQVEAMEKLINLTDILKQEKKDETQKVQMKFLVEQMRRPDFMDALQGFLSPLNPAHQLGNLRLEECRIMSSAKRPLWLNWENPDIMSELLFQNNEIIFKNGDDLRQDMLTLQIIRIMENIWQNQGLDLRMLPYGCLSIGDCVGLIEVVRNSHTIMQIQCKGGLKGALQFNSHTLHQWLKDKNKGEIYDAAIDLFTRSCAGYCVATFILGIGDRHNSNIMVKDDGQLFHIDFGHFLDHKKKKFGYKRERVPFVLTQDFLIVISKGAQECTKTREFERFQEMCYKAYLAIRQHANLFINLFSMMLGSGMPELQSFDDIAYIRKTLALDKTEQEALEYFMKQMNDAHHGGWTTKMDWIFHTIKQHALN
T4 sequence (P48736 144-1102 limits assumed): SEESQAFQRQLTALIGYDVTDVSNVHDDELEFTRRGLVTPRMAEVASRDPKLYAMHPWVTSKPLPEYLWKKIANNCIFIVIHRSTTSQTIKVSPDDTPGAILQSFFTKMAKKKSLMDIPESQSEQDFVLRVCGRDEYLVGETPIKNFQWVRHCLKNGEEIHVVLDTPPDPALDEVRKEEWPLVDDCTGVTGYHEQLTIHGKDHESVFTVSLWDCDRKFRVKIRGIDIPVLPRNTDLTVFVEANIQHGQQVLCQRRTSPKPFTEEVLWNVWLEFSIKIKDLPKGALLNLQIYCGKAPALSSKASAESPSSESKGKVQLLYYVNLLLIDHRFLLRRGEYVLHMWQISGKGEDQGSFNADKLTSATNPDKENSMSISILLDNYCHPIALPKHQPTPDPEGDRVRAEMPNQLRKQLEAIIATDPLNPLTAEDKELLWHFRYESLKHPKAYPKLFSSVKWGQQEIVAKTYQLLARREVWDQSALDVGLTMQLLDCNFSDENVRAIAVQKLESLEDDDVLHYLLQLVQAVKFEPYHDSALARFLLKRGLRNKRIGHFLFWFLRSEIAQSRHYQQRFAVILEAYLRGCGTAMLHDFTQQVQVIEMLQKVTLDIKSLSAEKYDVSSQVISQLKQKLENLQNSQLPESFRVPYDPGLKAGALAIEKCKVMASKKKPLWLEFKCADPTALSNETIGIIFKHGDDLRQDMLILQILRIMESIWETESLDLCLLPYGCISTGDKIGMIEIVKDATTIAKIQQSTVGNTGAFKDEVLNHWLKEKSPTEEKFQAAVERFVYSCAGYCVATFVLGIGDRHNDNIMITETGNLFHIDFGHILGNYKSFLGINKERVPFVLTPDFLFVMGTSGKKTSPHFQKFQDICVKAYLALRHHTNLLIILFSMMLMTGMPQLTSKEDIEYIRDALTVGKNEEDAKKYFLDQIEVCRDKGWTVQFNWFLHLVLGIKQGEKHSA
T3 sequence (O00329 with tags, fused parts or gaps limits assumed): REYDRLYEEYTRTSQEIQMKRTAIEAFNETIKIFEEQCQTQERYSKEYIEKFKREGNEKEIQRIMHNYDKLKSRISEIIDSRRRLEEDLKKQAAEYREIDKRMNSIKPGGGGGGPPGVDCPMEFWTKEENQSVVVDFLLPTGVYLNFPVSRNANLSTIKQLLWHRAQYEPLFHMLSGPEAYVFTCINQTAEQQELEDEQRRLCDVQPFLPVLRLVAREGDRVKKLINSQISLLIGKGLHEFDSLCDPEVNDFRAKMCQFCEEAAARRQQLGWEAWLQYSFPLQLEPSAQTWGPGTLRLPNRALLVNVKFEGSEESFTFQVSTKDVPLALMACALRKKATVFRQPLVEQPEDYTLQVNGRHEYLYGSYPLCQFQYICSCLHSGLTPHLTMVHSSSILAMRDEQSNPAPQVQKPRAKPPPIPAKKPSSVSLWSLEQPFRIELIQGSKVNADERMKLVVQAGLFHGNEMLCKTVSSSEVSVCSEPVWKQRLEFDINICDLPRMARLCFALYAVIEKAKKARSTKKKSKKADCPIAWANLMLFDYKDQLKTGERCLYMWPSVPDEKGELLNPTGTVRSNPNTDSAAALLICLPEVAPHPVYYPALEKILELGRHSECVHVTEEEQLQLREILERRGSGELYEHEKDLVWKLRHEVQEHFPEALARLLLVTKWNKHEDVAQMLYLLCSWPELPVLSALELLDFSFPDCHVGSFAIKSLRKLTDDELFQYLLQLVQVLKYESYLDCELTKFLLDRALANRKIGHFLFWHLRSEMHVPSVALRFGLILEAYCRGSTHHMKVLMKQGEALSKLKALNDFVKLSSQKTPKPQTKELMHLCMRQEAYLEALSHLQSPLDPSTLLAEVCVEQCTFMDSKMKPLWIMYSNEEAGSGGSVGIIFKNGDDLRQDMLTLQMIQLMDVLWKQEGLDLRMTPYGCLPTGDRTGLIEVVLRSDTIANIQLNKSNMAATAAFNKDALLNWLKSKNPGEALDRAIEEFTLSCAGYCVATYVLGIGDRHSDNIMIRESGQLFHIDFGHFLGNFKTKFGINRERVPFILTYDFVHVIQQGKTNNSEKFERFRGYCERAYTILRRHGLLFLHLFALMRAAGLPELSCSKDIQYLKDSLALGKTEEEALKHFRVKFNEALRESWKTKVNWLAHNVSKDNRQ

The term IC50 denotes the midpoint of a concentration-inhibition curve. In the case of `COc1ccc(-c2ccc3nc(C)c(-c4ccnc(NCc5ccccc5)n4)n3n2)cc1OC` [Example 86, Benzyl-{4-[6-(3,4-dimethoxy-phenyl)-2-methyl-imidazo[1,2-b]pyridazin-3-yl]-pyrimidin-2-yl}-amine], the IC50 on PI3K alfa is 2150 nM; at PI3K beta it was above 9100 nM; at PI3K delta, 4000 nM; on PI3K gamma, 8510 nM.

With `Cc1nc2ccc(-c3ccc(OCCCN4CCCC4=O)cc3)nn2c1-c1ccc(S(C)(=O)=O)cc1` [Example 106, 1-(3-{4-[3-(4-Methanesulfonyl-phenyl)-2-methyl-imidazo[1,2-b]pyridazin-6-yl]-phenoxy}-propyl)-pyrrolidin-2-one], the IC50 is 2200 nM at PI3K alfa, above 9100 nM on PI3K beta, 1040 nM at PI3K delta and 1060 nM at PI3K gamma.

For the compound `COc1ccc(-c2ccc3nc(C)c(-c4ccc(C#N)nc4)n3n2)cc1OC` [Example 4], the IC50 is 44 nM on PI3K alfa, 1210 nM on PI3K beta, 152 nM at PI3K delta and 345 nM on PI3K gamma.

Regarding `COc1cc(-c2ccc3nc(C)c(-c4cnc(N)c(C(F)(F)F)c4)n3n2)ccc1OCCNC(=O)c1ccncc1` [Example 29], the IC50 at PI3K alfa was 93 nM; at PI3K beta, above 9100 nM; on PI3K delta it was 1590 nM; on PI3K gamma, 2740 nM.

Turning to `COc1ccc(-c2ccc3nc(C)c(-c4ccn(S(=O)(=O)c5ccc(C#N)cc5)n4)n3n2)cc1OC` [Example 21, 4-{3-[6-(3,4-Dimethoxy-phenyl)-2-methyl-imidazo[1,2-b]pyridazin-3-yl]-pyrazole-1-sulfonyl}-benzonitrile], the IC50 on PI3K alfa is 408 nM; at PI3K beta, above 9100 nM; on PI3K delta, 406 nM; at PI3K gamma, 655 nM.

Consider `COc1ccc(-c2c(C)nc3ccc(-c4ccc(OC)c(OC)c4)nn23)cn1` [Example 3], for which the IC50 on PI3K alfa came out at 96.4 nM; at PI3K beta, 2310 nM; on PI3K delta, 514 nM.

As to `COc1ccc(-c2ccc3nc(C)c(-c4ccnc(NCC5CC5)n4)n3n2)cc1OC` [Example 87, Cyclopropylmethyl-{4-[6-(3,4-dimethoxy-phenyl)-2-methyl-imidazo[1,2-b]pyridazin-3-yl]-pyrimidin-2-yl}-amine], the IC50 on PI3K alfa was 296 nM; at PI3K beta it was above 9100 nM; at PI3K delta, 357 nM; at PI3K gamma, 98 nM.

For the compound `COc1ccc(-c2ccc3nc(C)c(-c4cnc(N)c(C(F)(F)F)c4)n3n2)cc1OC` [Example 15, 5-[6-(3,4-Dimethoxy-phenyl)-2-methyl-imidazo[1,2-b]pyridazin-3-yl]-3-trifluoromethyl-pyridin-2-ylamine], the IC50 at PI3K alfa is 5.9 nM; on PI3K beta, 150 nM; at PI3K delta it was 69 nM; at PI3K gamma, 157 nM.

With `COCCOCCOCCOc1ccc(-c2ccc3nc(C)c(-c4cnc(N)c(C(F)(F)F)c4)n3n2)cc1OC` [Example 84, 5-[6-(3-Methoxy-4-{2-[2-(2-methoxy-ethoxy)-ethoxy]-ethoxy}-phenyl)-2-methyl-imidazo[1,2-b]pyridazin-3-yl]-3-trifluoromethyl-pyridin-2-ylamine], the IC50 at PI3K alfa is 40 nM; on PI3K beta, above 9100 nM; at PI3K delta, 174 nM; on PI3K gamma it was 65 nM.

`Cc1nc2ccc(-c3ccc(OCCCN4CCCC4=O)cc3)nn2c1-c1cnc(N)c(C(F)(F)F)c1` [Example 105, 1-(3-{4-[3-(6-Amino-5-trifluoromethyl-pyridin-3-yl)-2-methyl-imidazo[1,2-b]pyridazin-6-yl]-phenoxy}-propyl)-pyrrolidin-2-one]: the IC50 on PI3K alfa stood at 83 nM; at PI3K beta it was 6260 nM; at PI3K delta, 273 nM; on PI3K gamma it was 518 nM.

With `Cc1nc2ccc(-c3ccc(OCC4(NC(=O)OCc5ccccc5)COC4)cc3)nn2c1-c1cnc(N)c(C(F)(F)F)c1` [Example 112, (3-{4-[3-(6-Amino-5-trifluoromethyl-pyridin-3-yl)-2-methyl-imidazo[1,2-b]pyridazin-6-yl]-phenoxymethyl}-oxetan-3-yl)-carbamic acid benzyl ester], the half-inhibitory concentration (IC50) at PI3K alfa was 821 nM; at PI3K beta it was above 9100 nM; at PI3K delta, 1820 nM; on PI3K gamma, above 9100 nM.

As to `COc1ccc(-c2ccc3nc(C)c(-c4ccnc(-n5ccnc5)n4)n3n2)cc1OC` [Example 83, 6-(3,4-Dimethoxy-phenyl)-3-(2-imidazol-1-yl-pyrimidin-4-yl)-2-methyl-imidazo[1,2-b]pyridazine], the IC50 on PI3K alfa was 276 nM; at PI3K beta, above 9100 nM; at PI3K delta, 397 nM; on PI3K gamma, 1160 nM.

As to `COc1cc(-c2ccc3nc(C)c(-c4cnc(N)c(C(F)(F)F)c4)n3n2)ccc1OCCNC(=O)c1ccc(OC)c(OC)c1OC` [Example 95, N-(2-{4-[3-(6-Amino-5-trifluoromethyl-pyridin-3-yl)-2-methyl-imidazo[1,2-b]pyridazin-6-yl]-2-methoxy-phenoxy}-ethyl)-2,3,4-trimethoxy-benzamide], the IC50 at PI3K alfa was 245 nM; on PI3K beta it was above 9100 nM; at PI3K delta, 5370 nM; on PI3K gamma it was 4740 nM.

As for `COc1cc(-c2ccc3nc(C)c(-c4cnc(N)c(C(F)(F)F)c4)n3n2)ccc1OCCCN1CCCC1=O` [Example 77], the IC50 stood at 75 nM at PI3K alfa, 3790 nM at PI3K beta, 281 nM on PI3K delta and 1260 nM at PI3K gamma.

`Cc1nc2ccc(-c3ccc(OCC4(NC(=O)C(C)C)COC4)cc3)nn2c1-c1cnc(N)c(C(F)(F)F)c1` [Example 114, N-(3-{4-[3-(6-Amino-5-trifluoromethyl-pyridin-3-yl)-2-methyl-innidazo[1,2-b]pyridazin-6-yl]-phenoxymethyl}-oxetan-3-yl)-isobutyramide]: the IC50 at PI3K alfa came out at 49 nM; at PI3K beta it was 8730 nM; on PI3K delta it was 435 nM; at PI3K gamma, 1520 nM.

Regarding `COc1cc(-c2ccc3nc(C)c(-c4ccc(S(C)(=O)=O)cc4)n3n2)ccc1OC1CCN(C(=O)OC(C)(C)C)CC1` [Example 98, 4-{4-[3-(4-Methanesulfonyl-phenyl)-2-methyl-imidazo[1,2-b]pyridazin-6-yl]-2-methoxy-phenoxy}-piperidine-1-carboxylic acid tert-butyl ester], the IC50 on PI3K alfa is 9090 nM; on PI3K beta, above 9100 nM; on PI3K delta, above 9100 nM; at PI3K gamma, above 9100 nM.

Source of the values: US20100305113A1, “Substituted Imidazopyridazines as Lipid Kinase Inhibitors” (priority 2007, published 2010).
